Patent USRE48267E1, “Variants of C-type natriuretic peptide” (priority 2009, dated 2020)
Read-outs that look alike come from different tables or passages of the source. Where a SMILES comes first, the peptide text is derived from it. Bridges are numbered along the chain shown (N, C = ends). Where no end group is shown, it is not given here. The star is where a group is joined. Heptanoyl = CCCCCCC(=O)*

How the values were obtained:
NPR-B = target: T1, NPR-B (Mus musculus, UniProt Q6VVW5); test: stimulation of cGMP production in NIH3T3 cells; type: cell-based, murine; details: for cGMP Response rel. to 1 uM CNP22, 10 nM: NIH3T3 cells exposed to 10 nM peptide; for cGMP Response rel. to 1 uM CNP22, 10 nM / cGMP Response rel. to 1 uM CNP22, 1 uM: normalized to cell number and cGMP production in the presence of 1 uM wtCNP22; for cGMP Response rel. to 1 uM CNP22, 1 uM: NIH3T3 cells exposed to 1 uM peptide; for NPR-B stimulation activity / cGMP production compared with wtCNP22 (in words): NIH3T3 cells
T1 construct: Murine NIH3T3 cells express endogenously the CNP signaling receptor, NPR-B; endogenous in cells; host or cells: NIH3T3
T1 sequence (Q6VVW5 17-1047): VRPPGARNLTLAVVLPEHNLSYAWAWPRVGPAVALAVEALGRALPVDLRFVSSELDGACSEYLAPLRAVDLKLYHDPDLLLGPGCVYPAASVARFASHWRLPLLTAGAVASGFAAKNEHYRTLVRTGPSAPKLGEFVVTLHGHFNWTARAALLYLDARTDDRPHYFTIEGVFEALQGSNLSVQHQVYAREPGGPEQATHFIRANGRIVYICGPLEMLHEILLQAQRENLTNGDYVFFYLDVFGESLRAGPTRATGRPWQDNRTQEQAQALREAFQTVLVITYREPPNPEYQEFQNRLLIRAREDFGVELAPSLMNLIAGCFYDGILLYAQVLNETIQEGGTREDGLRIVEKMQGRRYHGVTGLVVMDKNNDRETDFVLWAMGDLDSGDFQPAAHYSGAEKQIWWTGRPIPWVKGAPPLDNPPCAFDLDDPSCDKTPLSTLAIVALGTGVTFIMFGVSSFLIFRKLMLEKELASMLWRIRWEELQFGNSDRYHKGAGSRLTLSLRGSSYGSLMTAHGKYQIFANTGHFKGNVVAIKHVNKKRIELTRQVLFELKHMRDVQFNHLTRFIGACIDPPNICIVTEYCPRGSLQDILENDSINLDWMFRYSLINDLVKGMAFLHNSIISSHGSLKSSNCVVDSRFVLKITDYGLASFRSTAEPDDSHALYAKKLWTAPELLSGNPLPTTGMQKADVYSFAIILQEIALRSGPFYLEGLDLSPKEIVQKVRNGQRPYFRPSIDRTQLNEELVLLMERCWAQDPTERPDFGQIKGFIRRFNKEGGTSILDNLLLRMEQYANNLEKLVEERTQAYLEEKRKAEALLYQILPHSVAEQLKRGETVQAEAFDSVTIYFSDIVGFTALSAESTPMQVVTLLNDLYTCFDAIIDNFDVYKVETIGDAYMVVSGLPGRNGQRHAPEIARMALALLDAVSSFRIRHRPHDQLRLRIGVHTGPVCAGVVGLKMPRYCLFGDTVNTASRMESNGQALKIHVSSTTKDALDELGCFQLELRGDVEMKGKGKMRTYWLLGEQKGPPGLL
Description: To determine the functional activity of CNP variants, the production of cGMP was measured in NIH3T3 cells exposed to the CNP variants. Murine NIH3T3 cells express endogenously the CNP signaling receptor, NPR-B, which shares 98% protein sequence identity with human NPR-B. NIH3T3 cells were cultured in high glucose Dulbecco's Modified Eagle Medium supplemented with 10% fetal calf serum and antibiotics at 37° C. with 5% CO2). Twenty four to 48 hours prior to signaling, cells were passaged to 12-well plates with a density of 2-5×10^5 cells per well at the time of the assay. CNP variants were resuspended in 1 mM HCl to a stock concentration of 1 mg/mL (455 uM for wtCNP22) and subsequently diluted to a 30 uM working stock solution with phosphate-buffered saline (PBS). Ten-fold serial dilutions were prepared in phosphate-buffered saline. Culture medium was removed from the cells and replaced with 0.4 mL PBS/Dulbecco's modified Eagle medium (50/50, v/v) containing 0.75 mM isobutylmethylxanine. Plates were incubated at 37° C., 5% CO2 for 15 minutes before addition of 0.2 mL CNP variant in PBS and continued incubation at 37° C. for 15 minutes. Reactions were stopped by the addition of 0.2 mL lysis buffer supplied with the CatchPoint cGMP assay kit (Molecular Devices), and cGMP production was determined with the CatchPoint cGMP Assay (Molecular Devices). All stimulation experiments were performed in duplicate.
Tables 1-4 summarize the ability of CNP variants having backbone or side chain modifications, amino acid substitutions, N-terminal amino acid extensions, and/or N-terminal PEGylation, respectively, to stimulate cGMP production in NIH3T3 cells. In all four tables, the values for cGMP production in NIH3T3 cells exposed to 10 nM or 1 uM CNP variant are normalized to cell number and cGMP production in the presence of 1 uM wtCNP22.

Recombinant human NEP = Recombinant human NEP (Homo sapiens, UniProt P08473); test: in vitro NEP cleavage assay (disappearance of non-cleaved CNP variant); details: for NEP Cleavage (t1/2, min): 100 uM peptide, 1 ug/mL NEP, 0.1 M Tris pH 7, 37° C., adjusted t1/2, CNP22 normalized to 80 min
Description: To determine the effects of amino acid substitutions, amino acid extensions, backbone modifications, side chain modifications and PEGylation on the susceptibility of CNP variants to neutral endopeptidase (NEP) cleavage, peptide cleavage assays were carried out using an in vitro assay that monitored disappearance of the non-cleaved CNP variant.
Recombinant human NEP (1 ug/mL final concentration) was added to 100 uM CNP variant diluted in 0.1 M Tris, pH 7. The reaction mixture was incubated at 37° C. for various periods of time, and the reaction was quenched with EDTA (10 mM final) followed by heat denaturation. The reaction mixture was reduced and then the reaction products were analyzed using HPLC and mass spectroscopy. The half-life of the CNP variant was calculated based on the disappearance of intact CNP variant over time.

Chain of Recombinant human NEP (P08473 whole entry): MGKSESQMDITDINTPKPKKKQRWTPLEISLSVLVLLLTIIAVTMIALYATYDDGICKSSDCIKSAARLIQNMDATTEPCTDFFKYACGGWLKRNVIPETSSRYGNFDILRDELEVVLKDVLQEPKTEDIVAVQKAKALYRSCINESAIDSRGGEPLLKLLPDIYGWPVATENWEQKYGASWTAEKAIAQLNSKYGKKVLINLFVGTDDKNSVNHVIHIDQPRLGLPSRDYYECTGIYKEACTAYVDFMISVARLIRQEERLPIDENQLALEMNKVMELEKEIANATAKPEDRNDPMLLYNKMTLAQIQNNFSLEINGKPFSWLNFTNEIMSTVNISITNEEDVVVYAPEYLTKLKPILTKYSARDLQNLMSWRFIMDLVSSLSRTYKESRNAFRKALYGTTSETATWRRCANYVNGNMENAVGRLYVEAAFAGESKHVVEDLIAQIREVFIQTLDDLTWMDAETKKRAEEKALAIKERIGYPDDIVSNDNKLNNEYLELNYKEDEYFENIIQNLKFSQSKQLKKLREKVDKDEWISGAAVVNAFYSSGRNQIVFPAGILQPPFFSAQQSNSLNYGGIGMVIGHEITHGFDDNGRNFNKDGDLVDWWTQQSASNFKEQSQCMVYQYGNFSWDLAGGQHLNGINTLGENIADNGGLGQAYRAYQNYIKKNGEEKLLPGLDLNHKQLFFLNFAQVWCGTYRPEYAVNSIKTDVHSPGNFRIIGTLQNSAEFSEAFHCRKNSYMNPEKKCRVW

Compound	cGMP Response rel. to 1 uM CNP22, 10 nM (NPR-B)	cGMP Response rel. to 1 uM CNP22, 1 uM (NPR-B)	NEP Cleavage (t1/2, min) (Recombinant human NEP)	resistance to NEP cleavage (in words) (Recombinant human NEP)	resistance to NEP cleavage (in words) (Recombinant human NEP; in vitro NEP assay, assay period 160 minutes)	NPR-B stimulation activity / cGMP production compared with wtCNP22 (in words) (NPR-B)	resistance to cleavage at the Cys6-Phe7 bond relative to wtCNP22 (Recombinant human NEP)	half-life compared to those for Analogs A, B, F and H (Recombinant human NEP; human)	half-life in comparison to wtCNP22 (Recombinant human NEP; human)
CC[C@H](C)[C@@H]1NC(=O)[C@H](CCCNC(=N)N)NC(=O)[C@H](CC(=O)O)NC(=O)[C@H](CC(C)C)NC(=O)[C@H](CCCCN)NC(=O)[C@H](CC(C)C)N(C)C(=O)CNC(=O)[C@H](Cc2ccccc2)NC(=O)[C@@H](NC(=O)CNC(=O)[C@H](CCCCN)NC(=O)[C@H](CO)NC(=O)[C@H](CC(C)C)NC(=O)CN)CSSC[C@@H](C(=O)O)NC(=O)CNC(=O)[C@H](CC(C)C)N(C)C(=O)CNC(=O)[C@H](CO)NC(=O)[C@H](CCSC)NC(=O)[C@H](CO)NC(=O)CNC1=O [Analog K, CNP22, N-methyl-L9, N-methyl-L20]	1	1	80 min	–	–	–	–	–	–
CC[C@H](C)[C@@H]1NC(=O)[C@H](CCCNC(=N)N)NC(=O)[C@H](CC(=O)O)NC(=O)[C@H](CC(C)C)N(C)C(=O)[C@H](CCCCN)NC(=O)[C@H](CC(C)C)N(C)C(=O)CNC(=O)[C@H](Cc2ccccc2)NC(=O)[C@@H](NC(=O)CNC(=O)[C@H](CCCCN)NC(=O)[C@H](CO)NC(=O)[C@H](CC(C)C)NC(=O)CN)CSSC[C@@H](C(=O)O)NC(=O)CNC(=O)[C@H](CC(C)C)N(C)C(=O)CNC(=O)[C@H](CO)NC(=O)[C@H](CCSC)NC(=O)[C@H](CO)NC(=O)CNC1=O [Analog L, CNP22, N-methyl-L9, N-methyl-L11, N-methyl-L20]	18	10	–	substantially shorter half-life	–	–	–	–	–
CC[C@@H](C)[C@H]1NC(=O)[C@@H](CCCNC(=N)N)NC(=O)[C@@H](CC(=O)O)NC(=O)[C@@H](CC(C)C)NC(=O)[C@@H](CCCCN)NC(=O)[C@@H](CC(C)C)NC(=O)CNC(=O)[C@@H](Cc2ccccc2)NC(=O)[C@H](NC(=O)CNC(=O)[C@@H](CCCCN)NC(=O)[C@@H](CO)NC(=O)[C@@H](CC(C)C)NC(=O)CN)CSSC[C@H](C(=O)O)NC(=O)CNC(=O)[C@@H](CC(C)C)NC(=O)CNC(=O)[C@@H](CO)NC(=O)[C@@H](CCSC)NC(=O)[C@@H](CO)NC(=O)CNC1=O [Analog N, D-CNP22 (all D-amino acids)]	2	1	>>160 min	–	greatest resistance to NEP cleavage	–	–	–	–
CC[C@H](C)[C@@H]1NC(=O)[C@H](CCCNC(=N)N)NC(=O)[C@H](CC(=O)O)NC(=O)[C@H](CC(C)C)N(C)C(=O)[C@H](CCCCN)NC(=O)[C@H](CC(C)C)N(C)C(=O)CNC(=O)[C@H](Cc2ccccc2)NC(=O)[C@@H](NC(=O)CNC(=O)[C@H](CCCCN)NC(=O)[C@H](CO)NC(=O)[C@H](CC(C)C)NC(=O)CN)CSSC[C@@H](C(=O)O)NC(=O)CNC(=O)[C@H](CC(C)C)NC(=O)CNC(=O)[C@H](CO)NC(=O)[C@H](CCSC)NC(=O)[C@H](CO)NC(=O)CNC1=O [Analog M, CNP22, N-methyl-L9, N-methyl-L11]	1	11	>>160 min	greatest resistance to NEP cleavage	–	–	–	–	–
CCCCCCC(=O)N[C@@H](CCC(=O)O)C(=O)N[C@@H](CC(C)C)C(=O)N[C@@H](CO)C(=O)N[C@@H](CCCCN)C(=O)NCC(=O)N[C@H]1CSSC[C@@H](C(=O)O)NC(=O)CNC(=O)[C@H](CC(C)C)NC(=O)CNC(=O)[C@H](CO)NC(=O)[C@H](CCSC)NC(=O)[C@H](CO)NC(=O)CNC(=O)[C@H]([C@@H](C)CC)NC(=O)[C@H](CCCNC(=N)N)NC(=O)[C@H](CC(=O)O)NC(=O)[C@H](CC(C)C)NC(=O)[C@H](CCCCN)NC(=O)[C@H](CC(C)C)NC(=O)CNC(=O)[C@H](Cc2ccccc2)NC1=O [Analog BB, Heptanoic acid (N-term.)-CNP22, G1E] (Heptanoyl-ELSKGCFGLKLDRIGSMSGLGC-OH; disulfide 6-22)	32 ± 4	84 ± 19	45 to 65 min	–	–	comparable NPR-B stimulation activity as wtCNP22	–	–	–
SPKMVQGSG-CNP17-KVLRRH (SPKMVQGSGCFGLKLDRIGSMSGLGCKVLRRH; disulfide 10-26 (inferred); ends not checked) [Analog CD]	–	–	–	–	–	comparable NPR-B stimulation activity as wtCNP22	–	–	–
CC[C@H](C)[C@@H]1NC(=O)[C@H](CCCNC(=N)N)NC(=O)[C@H](CC(=O)O)NC(=O)[C@H](CC(C)C)NC(=O)[C@H](CCCCN)NC(=O)[C@H](CC(C)C)NC(=O)CNC(=O)[C@H](Cc2cccc(Cl)c2)NC(=O)[C@@H](NC(=O)CNC(=O)[C@H](CCCCN)NC(=O)[C@H](CO)NC(=O)[C@H](CC(C)C)NC(=O)CN)CSSC[C@@H](C(=O)O)NC(=O)CNC(=O)[C@H](CC(C)C)NC(=O)CNC(=O)[C@H](CO)NC(=O)[C@H](CCSC)NC(=O)[C@H](CO)NC(=O)CNC1=O [Analog G]	17	93	135 min	–	–	–	resistance or improved resistance	1.5-2.5 fold	about 1.5 times
CC[C@H](C)[C@@H]1NC(=O)[C@H](CCCNC(=N)N)NC(=O)[C@H](CC(=O)O)NC(=O)[C@H](CC(C)C)NC(=O)[C@H](CCCCN)NC(=O)[C@H](CC(C)C)NC(=O)CNC(=O)[C@H](Cc2ccccc2)NC(=O)[C@@H](NC(=O)CNC(=O)[C@H](CCCNC(=N)N)NC(=O)[C@H](CO)NC(=O)[C@H](CC(C)C)NC(=O)CN)CSSC[C@@H](C(=O)O)NC(=O)CNC(=O)[C@H](CC(C)C)NC(=O)CNC(=O)[C@H](CO)NC(=O)[C@H](CCSC)NC(=O)[C@H](CO)NC(=O)[C@H](CC(N)=O)NC1=O [Analog BJ, CNP22, K4R, G15N] (H-GLSRGCFGLKLDRINSMSGLGC-OH; disulfide 6-22; N-terminus and C-terminus assumed)	4	41	–	greatest resistance to NEP cleavage	–	–	–	–	–
